Experimental data taken from patent US20130196050A1, “SALTY TASTE ENHANCER” (AJINOMOTO CO., INC., priority 2010, published 2013).

Target: T1, Human ENaC δ, β and γ subunit (Homo sapiens, UniProt P51168+P51170+P51172)
T1 construct: expressed in transfected cells; host or cells: Xenopus laevis (African clawed frog) oocytes injected with cRNA
T1 sequence (P51172 1-638 isoform P51172-1): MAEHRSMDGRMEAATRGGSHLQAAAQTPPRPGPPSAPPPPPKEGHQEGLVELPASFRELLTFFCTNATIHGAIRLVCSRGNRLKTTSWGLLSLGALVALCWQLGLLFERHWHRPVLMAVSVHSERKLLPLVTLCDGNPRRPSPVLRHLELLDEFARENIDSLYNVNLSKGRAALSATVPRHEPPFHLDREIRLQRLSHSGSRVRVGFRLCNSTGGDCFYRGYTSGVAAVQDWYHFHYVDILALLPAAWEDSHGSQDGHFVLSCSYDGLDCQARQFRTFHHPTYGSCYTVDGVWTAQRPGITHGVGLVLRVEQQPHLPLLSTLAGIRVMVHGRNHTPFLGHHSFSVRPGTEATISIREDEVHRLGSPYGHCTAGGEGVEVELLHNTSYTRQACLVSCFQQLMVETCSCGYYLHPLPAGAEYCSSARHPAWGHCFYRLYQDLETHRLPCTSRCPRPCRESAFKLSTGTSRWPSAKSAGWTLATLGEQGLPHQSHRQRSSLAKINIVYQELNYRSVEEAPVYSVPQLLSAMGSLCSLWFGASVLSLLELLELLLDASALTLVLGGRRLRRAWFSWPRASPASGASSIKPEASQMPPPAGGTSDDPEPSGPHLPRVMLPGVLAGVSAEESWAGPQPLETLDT
T1 sequence (P51168 1-640): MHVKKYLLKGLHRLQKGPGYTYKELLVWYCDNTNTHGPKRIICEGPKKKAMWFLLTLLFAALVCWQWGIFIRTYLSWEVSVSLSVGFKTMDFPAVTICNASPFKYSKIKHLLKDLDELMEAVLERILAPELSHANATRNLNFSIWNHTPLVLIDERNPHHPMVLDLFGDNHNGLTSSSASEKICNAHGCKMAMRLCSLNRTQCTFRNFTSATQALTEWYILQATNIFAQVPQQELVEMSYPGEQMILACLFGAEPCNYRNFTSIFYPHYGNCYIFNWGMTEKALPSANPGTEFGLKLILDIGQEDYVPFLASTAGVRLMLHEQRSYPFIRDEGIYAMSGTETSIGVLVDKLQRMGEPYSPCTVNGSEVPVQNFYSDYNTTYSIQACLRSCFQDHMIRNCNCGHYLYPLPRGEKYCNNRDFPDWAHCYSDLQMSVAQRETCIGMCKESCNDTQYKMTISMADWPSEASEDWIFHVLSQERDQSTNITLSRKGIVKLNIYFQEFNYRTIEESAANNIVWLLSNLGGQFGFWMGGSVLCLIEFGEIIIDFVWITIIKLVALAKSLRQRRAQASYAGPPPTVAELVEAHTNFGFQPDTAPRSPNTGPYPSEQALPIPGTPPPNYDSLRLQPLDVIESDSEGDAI
T1 sequence (P51170 1-649): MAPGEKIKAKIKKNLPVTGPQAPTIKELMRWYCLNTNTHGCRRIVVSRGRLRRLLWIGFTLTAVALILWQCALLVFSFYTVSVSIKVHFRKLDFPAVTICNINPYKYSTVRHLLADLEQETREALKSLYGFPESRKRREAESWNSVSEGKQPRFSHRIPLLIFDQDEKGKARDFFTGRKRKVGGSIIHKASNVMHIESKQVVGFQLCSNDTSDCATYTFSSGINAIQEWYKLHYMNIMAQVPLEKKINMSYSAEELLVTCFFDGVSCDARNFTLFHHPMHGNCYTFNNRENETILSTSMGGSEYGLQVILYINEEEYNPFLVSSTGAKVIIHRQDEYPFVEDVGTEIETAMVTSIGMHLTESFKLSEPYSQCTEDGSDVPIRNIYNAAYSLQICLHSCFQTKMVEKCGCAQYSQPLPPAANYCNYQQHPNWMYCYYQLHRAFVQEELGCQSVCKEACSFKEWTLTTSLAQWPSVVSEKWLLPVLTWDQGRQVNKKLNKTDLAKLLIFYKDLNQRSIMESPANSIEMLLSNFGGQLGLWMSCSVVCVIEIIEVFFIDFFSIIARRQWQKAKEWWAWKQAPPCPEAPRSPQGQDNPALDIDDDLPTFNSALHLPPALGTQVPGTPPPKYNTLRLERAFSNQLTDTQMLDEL
Experiment: Measurement of ENaC activation potency (two electrode voltage clamp current in ENaC-expressing oocyte)
Assay type: cell-based
Summary of the method: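 Xenopus oocytes were injected with human ENaC δ, β and γ cRNA, cultured 16–72 h, and voltage-clamped by two-electrode clamp at −30 mV below resting potential in ND96 (pH 7.6) perfusion. Compounds (0.1 nM–300 μM) were added in rising concentrations at 3-min intervals. MED was the first concentration raising current by ≥10% over pre-addition current.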

SMILES: O=C(NCCc1c[nH]c2ccc(O)cc12)c1c(O)cccc1O [Example 35, 2,6-dihydroxy-N-(2-(5-hydroxy-1H-indol-3-yl)ethyl)benzamide]
- concentration from which the ENaC activation current starts to increase (FIG. 3): 0.00001 g/dL
- concentration at which the ENaC activation current reaches the maximum current value (FIG. 3, almost constant up to 0.0080 g/dl): 0.0020 g/dL
- MED value (minimum effective dose) (lowest concentration increasing the current value by not less than 10% vs before addition): 0.1 to 0.3 µM
